Experimental findings from paper PMC5862592, “CDK8/19 inhibition induces premature G1/S transition and ATR-dependent cell death in prostate cancer cells” (Oncotarget, 2018) are described below.

The structures appear in SMILES notation. Like-named read-outs stand apart in the source and are kept apart here.

Experiment in all cases: biochemical
Holding throughout (set-up): KINOMEscan active site-directed competition binding assay (DiscoveRx), 456 kinases, per cent of control at 300 nM
Common to all, as to conditions: read-out: Percent of Control (%)

One experiment addresses BRSK1 (Homo sapiens, UniProt Q8TDC3). In a few lines:
(§1)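 Values reflect active-site competition binding from a screen of 456 kinases, with test compounds at a fixed 300 nmol/L.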

For experiment [1], the target named is T1, RSK3(Kin.Dom.1-N-terminal) (Homo sapiens, UniProt Q15349).
T1 construct: gene RPS6KA2; Kin.Dom.1-N-terminal
Put shortly: as §1

In another experiment the target is T2, MINK (Homo sapiens, UniProt Q8N4C8).
T2 construct: gene MINK1
Put shortly:
as §1

The next experiment concerns the target T3, OSR1 (Homo sapiens, UniProt O95747).
T3 construct: gene OXSR1
In a few lines:
as §1

The target of another experiment is T4, IKK-beta (Homo sapiens, UniProt O14920).
T4 construct: gene IKBKB
In a few lines:
as §1

The target in another experiment is T5, LKB1 (Homo sapiens, UniProt Q15831).
T5 construct: gene STK11
In a few lines:
as §1

Another experiment addresses EGFR(G719S) (Homo sapiens, UniProt P00533, G719S). Put shortly: as §1
For the next experiment, the target named is EPHA5 (Homo sapiens, UniProt P54756). In a few lines:
as §1

A further experiment has as its target MET(Y1235D) (Homo sapiens, UniProt P08581, Y1235D). Put shortly: as §1
Another experiment addresses NEK10 (Homo sapiens, UniProt Q6ZWH5). Put shortly: as §1
Another experiment deals with RIPK1 (Homo sapiens, UniProt Q13546). In a few lines:
as §1

The next experiment has as its target BRAF(V600E) (Homo sapiens, UniProt P15056, V600E). In a few lines:
as §1

For experiment [2], the target named is T6, RPS6KA4(Kin.Dom.1-N-terminal) (Homo sapiens, UniProt O75676).
T6 construct: Kin.Dom.1-N-terminal
Put shortly:
as §1

A further experiment addresses FLT3(N841I) (Homo sapiens, UniProt P36888, N841I). Put shortly: as §1
The next experiment concerns the target TRPM6 (Homo sapiens, UniProt Q9BX84). In a few lines: as §1
Another experiment has as its target T7, ARK5 (Homo sapiens, UniProt O60285).
T7 construct: gene NUAK1
Put shortly:
as §1

Another experiment has as its target CDKL3 (Homo sapiens, UniProt Q8IVW4). Put shortly:
as §1

In a further experiment the target is T8, MKK7 (Homo sapiens, UniProt O14733).
T8 construct: gene MAP2K7
Put shortly:
as §1

Another experiment deals with ACVR2B (Homo sapiens, UniProt Q13705). Put shortly: as §1
In another experiment the target is CSNK1G2 (Homo sapiens, UniProt P78368). Put shortly:
as §1

In the next experiment the target is T9, p38-beta (Homo sapiens, UniProt Q15759).
T9 construct: gene MAPK11
In a few lines:
as §1

Chain of BRAF(V600E) (P15056 whole entry V600E): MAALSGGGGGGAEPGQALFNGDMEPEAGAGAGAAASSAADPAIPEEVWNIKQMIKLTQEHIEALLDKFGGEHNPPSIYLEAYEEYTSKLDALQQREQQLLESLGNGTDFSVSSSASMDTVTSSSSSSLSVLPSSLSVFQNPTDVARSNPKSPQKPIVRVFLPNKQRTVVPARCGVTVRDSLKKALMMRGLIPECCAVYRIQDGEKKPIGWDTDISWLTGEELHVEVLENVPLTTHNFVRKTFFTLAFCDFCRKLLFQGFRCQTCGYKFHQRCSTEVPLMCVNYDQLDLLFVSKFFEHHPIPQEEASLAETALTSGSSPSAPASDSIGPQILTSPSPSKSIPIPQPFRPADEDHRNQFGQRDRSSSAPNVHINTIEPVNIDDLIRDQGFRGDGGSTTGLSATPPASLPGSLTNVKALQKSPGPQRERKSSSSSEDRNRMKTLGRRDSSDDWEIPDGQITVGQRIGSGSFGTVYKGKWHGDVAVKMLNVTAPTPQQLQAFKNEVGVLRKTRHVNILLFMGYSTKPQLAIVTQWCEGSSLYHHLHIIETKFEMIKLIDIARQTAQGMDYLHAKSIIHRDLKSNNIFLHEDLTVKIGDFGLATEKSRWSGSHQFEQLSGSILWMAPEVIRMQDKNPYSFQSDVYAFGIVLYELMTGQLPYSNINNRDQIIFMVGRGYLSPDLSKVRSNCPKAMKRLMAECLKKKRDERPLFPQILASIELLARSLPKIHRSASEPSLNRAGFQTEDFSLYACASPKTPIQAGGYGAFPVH
T5 sequence (Q15831 whole entry): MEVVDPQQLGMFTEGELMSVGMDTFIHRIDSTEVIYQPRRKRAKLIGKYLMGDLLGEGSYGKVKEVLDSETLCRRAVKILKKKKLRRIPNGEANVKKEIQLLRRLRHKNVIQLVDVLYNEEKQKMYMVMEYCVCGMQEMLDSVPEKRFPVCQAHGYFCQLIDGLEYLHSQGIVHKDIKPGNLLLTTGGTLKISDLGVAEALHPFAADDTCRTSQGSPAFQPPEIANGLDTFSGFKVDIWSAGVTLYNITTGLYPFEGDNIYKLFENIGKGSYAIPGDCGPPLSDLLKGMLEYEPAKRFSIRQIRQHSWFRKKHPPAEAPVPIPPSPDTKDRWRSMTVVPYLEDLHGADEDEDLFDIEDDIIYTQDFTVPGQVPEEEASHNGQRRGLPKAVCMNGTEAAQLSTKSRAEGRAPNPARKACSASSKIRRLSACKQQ
Chain of MET(Y1235D) (P08581 whole entry Y1235D): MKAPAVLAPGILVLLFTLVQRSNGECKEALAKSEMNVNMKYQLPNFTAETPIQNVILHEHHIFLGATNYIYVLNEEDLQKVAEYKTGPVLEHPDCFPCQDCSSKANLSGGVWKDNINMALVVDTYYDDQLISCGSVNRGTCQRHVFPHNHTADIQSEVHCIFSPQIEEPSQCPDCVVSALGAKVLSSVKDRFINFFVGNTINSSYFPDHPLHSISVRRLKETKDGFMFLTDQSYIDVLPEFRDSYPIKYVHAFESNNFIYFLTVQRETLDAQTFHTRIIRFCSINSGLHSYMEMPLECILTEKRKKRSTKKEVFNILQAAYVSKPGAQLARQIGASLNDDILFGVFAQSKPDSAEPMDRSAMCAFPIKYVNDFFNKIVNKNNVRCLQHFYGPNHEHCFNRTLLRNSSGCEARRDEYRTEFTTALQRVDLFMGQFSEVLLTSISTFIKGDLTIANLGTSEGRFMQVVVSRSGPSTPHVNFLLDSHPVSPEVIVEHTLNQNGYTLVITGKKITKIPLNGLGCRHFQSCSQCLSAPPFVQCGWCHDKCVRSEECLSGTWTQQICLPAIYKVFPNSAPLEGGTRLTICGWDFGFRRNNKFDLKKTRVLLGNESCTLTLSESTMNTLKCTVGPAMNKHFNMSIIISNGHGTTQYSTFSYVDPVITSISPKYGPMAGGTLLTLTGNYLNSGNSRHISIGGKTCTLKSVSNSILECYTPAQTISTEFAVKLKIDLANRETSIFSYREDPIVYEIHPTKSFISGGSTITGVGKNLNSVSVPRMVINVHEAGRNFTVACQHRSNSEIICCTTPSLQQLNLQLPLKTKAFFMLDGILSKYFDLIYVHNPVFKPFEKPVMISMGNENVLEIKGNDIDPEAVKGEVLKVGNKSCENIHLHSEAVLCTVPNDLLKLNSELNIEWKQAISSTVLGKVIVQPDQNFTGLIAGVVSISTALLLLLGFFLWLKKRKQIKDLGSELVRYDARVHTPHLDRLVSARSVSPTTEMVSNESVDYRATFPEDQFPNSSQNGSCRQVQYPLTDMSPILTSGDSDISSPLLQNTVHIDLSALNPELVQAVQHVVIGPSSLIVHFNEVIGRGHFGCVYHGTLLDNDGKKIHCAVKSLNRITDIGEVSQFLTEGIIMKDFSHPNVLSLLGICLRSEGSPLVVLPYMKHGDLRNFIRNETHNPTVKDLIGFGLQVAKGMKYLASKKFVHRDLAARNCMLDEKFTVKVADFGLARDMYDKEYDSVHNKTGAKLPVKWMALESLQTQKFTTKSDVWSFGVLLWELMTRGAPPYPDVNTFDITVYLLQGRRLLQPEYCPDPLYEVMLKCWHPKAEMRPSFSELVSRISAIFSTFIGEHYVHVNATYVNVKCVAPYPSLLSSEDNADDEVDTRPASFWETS
T6 sequence (O75676 whole entry): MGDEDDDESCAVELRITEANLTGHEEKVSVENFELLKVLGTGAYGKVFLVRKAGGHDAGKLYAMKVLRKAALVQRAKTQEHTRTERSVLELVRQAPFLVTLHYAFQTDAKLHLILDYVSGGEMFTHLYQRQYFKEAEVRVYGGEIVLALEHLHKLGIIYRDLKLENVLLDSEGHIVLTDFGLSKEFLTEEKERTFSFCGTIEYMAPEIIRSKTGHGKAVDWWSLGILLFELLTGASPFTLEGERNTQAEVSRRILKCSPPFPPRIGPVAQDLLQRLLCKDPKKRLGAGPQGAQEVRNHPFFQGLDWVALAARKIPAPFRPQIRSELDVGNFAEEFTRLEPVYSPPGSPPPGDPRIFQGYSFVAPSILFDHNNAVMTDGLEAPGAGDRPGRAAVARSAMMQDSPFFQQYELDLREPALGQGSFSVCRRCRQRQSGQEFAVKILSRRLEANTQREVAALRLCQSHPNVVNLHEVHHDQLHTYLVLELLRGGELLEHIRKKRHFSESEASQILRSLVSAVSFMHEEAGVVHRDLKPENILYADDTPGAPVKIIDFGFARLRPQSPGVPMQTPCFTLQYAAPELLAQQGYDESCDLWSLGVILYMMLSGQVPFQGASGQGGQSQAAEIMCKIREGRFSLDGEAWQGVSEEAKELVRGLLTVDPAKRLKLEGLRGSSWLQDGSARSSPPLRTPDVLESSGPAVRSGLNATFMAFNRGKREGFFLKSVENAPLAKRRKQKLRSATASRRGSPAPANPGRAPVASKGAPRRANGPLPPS
Chain of EGFR(G719S) (P00533 whole entry G719S): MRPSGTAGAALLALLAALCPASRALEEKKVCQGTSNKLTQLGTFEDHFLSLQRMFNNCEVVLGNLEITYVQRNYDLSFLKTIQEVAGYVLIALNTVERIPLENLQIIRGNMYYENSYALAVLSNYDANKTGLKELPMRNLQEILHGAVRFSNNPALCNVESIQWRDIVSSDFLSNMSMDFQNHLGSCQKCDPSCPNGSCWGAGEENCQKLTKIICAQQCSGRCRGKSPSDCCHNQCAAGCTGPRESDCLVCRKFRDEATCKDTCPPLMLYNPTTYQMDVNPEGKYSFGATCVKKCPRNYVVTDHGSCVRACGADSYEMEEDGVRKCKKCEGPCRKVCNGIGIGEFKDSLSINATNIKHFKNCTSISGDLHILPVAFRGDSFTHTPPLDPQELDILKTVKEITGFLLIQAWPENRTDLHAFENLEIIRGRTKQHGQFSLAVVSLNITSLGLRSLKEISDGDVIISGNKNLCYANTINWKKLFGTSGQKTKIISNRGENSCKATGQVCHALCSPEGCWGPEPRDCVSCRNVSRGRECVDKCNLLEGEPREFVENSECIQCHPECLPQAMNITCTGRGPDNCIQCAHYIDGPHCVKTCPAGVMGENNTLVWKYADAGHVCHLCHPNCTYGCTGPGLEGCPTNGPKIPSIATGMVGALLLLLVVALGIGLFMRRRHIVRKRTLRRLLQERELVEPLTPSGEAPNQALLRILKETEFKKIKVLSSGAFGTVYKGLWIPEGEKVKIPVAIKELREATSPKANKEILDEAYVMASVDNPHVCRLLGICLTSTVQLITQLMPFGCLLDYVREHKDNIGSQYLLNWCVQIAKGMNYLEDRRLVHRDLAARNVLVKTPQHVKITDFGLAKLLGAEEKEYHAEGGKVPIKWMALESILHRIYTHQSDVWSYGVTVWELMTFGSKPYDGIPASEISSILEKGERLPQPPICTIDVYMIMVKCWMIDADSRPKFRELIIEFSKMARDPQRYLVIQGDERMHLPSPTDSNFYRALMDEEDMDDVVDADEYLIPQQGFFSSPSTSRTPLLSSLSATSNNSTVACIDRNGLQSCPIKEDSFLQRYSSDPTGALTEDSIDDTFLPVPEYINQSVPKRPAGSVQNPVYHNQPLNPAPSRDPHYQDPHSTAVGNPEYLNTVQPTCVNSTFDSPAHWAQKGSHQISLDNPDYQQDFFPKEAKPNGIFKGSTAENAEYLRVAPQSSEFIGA
Chain of ACVR2B (Q13705 whole entry): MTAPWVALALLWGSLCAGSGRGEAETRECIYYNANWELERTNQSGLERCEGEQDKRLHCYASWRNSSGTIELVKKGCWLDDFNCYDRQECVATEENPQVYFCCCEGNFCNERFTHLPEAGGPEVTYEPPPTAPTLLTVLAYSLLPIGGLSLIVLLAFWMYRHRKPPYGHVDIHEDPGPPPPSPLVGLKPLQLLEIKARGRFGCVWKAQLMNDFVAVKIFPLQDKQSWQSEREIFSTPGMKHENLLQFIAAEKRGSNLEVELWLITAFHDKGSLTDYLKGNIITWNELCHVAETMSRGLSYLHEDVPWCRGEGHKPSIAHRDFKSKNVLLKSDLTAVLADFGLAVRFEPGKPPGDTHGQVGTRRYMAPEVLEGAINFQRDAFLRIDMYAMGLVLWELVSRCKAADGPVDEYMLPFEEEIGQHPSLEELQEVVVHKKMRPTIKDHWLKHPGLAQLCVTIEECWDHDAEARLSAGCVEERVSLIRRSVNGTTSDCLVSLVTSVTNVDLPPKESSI

Regarding `O=C(/C=C/c1cnccc1-c1ccc(F)cc1)Nc1ccc(CCc2nnco2)cc1` [T-418, (2E)-3-(4-(4-fluorophenyl)pyridin-3-yl)-N-(4-(2-(1,3,4-oxadiazol-2-yl)ethyl)phenyl)acrylamide], the remaining binding at 0.3 µM on BRSK1 (sheet T-418) came to 100%; in [1] (sheet T-418), 79%; at MINK (sheet T-418), 80%; at OSR1 (sheet T-418), 53%; at IKK-beta (sheet T-418), 100%; on LKB1 (sheet T-418) it was 53%. Moreover, the remaining binding at 0.3 µM at EGFR(G719S) (sheet T-418) worked out at 68%; at EPHA5 (sheet T-418), 96%; at MET(Y1235D) (sheet T-418), 95%; at NEK10 (sheet T-418), 100%; at RIPK1 (sheet T-418), 83%; on BRAF(V600E) (sheet T-418) it was 100%. Further, the remaining binding at 0.3 µM in experiment [2] (sheet T-418) came out at 90%; at FLT3(N841I) (sheet T-418) it was 79%; on TRPM6 (sheet T-418) it was 90%; on ARK5 (sheet T-418), 100%; at CDKL3 (sheet T-418), 78%; on MKK7 (sheet T-418), 100%. The remaining binding at 0.3 µM on ACVR2B (sheet T-418) worked out at 80%; at CSNK1G2 (sheet T-418) it was 100%; at p38-beta (sheet T-418) it was 77%.
For the compound `Cc1ncccc1Oc1sc(C(N)=O)c2c1-c1c(cnn1C)CC2` [T-474, 1-methyl-8-((2-methylpyridin-3-yl)oxy)-4,5-dihydro-1H-thieno[3,4-g]indazole-6-carboxamide], the remaining binding at 0.3 µM stood at 100% on BRSK1; 100% in [1]; 100% on MINK; 60% at OSR1; 100% on IKK-beta; 67% on LKB1. In addition, the remaining binding at 0.3 µM at EGFR(G719S) amounted to 92%; at EPHA5, 98%; on MET(Y1235D), 100%; on NEK10 it was 100%; on RIPK1, 95%; at BRAF(V600E), 100%. In addition, the remaining binding at 0.3 µM in [2] came out at 100%; on FLT3(N841I) it was 97%; on TRPM6, 95%; on ARK5, 100%; on CDKL3, 96%; on MKK7, 100%. The remaining binding at 0.3 µM on ACVR2B was determined as 81%; at CSNK1G2, 90%; on p38-beta, 64%.
